Measured values as given in patent publication EP1900728A1 (Genecare Research Institute Co., Ltd, priority 2005, dated 2006).
Where two headings read alike, the source gives them in different places.

Tests used:
[1] = molecular target: T1, IκBα ubiquitinating enzyme (SCF complex: ROC1, Cullin1, Skp1, His-TrCP1; with E1, UbcH5b) (Homo sapiens, UniProt P62877+P63208+Q13616+Q9Y297); test: Measurement of ubiquitinating enzyme activity (IκBα ubiquitination, time-resolved fluorescence with Eu(K)-labeled ubiquitin and XL665-labeled anti-GST antibody); assay type: biochemical
T1 construct: His (polyhistidine); made in house; host or cells: insect cells (baculovirus) for the SCF complex and His-E1; E. coli for His-UBCH5b
Procedure, shortened: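 Human SCF complex with E1 and UbcH5b ubiquitinated GST-IκBα pre-phosphorylated by IKKβ (2 mM ATP, pH 7.4, 1 h, RT), with Eu(K)-ubiquitin, 30 min RT. Stopped with EDTA, XL665 anti-GST added for 2 h; 665/620 nm TR-FRET ratio. % inhibition versus no-compound control and no-SCF blank gave IC50.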

[2] = system: ICAM-1 expression in HT-29 cells; test: Measurement of ICAM-1 expressing activity (TNFα-induced ICAM-1 expression, cell ELISA); assay type: cell-based; settings: Homo sapiens, Table 6, cell activity inhibition test by method (3), read-out: EVALUATION (IC50 class, inhibition of cell activity)
Procedure, shortened: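 HT-29 cells pretreated with compound (0.5% DMSO final) for 30 min at 37°C, then stimulated with 30 ng/mL human TNFα for 4 h. Surface ICAM-1 measured by cell ELISA on methanol-fixed cells: anti-ICAM-1 plus POD secondary, TMBZ substrate, absorbance at 450 nm.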

[3] = enzyme activity inhibition test, method (1), Table 5, read-out: EVALUATION

T1 sequence (Q9Y297 whole entry): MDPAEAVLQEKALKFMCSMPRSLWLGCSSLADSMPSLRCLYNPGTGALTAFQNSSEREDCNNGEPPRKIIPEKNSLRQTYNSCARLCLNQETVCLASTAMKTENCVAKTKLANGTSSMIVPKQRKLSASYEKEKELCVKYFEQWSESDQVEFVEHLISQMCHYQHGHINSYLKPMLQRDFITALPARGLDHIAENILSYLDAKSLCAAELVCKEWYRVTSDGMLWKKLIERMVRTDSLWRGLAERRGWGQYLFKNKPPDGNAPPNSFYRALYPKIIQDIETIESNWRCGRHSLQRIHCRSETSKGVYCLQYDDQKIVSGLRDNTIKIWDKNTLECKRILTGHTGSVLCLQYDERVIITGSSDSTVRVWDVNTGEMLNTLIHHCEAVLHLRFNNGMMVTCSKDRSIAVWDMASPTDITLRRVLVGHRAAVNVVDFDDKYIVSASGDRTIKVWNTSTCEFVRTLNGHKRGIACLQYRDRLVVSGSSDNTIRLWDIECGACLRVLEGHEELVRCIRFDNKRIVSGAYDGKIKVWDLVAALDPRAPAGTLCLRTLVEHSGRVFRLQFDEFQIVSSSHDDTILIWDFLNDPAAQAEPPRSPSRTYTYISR
T1 sequence (Q13616 whole entry): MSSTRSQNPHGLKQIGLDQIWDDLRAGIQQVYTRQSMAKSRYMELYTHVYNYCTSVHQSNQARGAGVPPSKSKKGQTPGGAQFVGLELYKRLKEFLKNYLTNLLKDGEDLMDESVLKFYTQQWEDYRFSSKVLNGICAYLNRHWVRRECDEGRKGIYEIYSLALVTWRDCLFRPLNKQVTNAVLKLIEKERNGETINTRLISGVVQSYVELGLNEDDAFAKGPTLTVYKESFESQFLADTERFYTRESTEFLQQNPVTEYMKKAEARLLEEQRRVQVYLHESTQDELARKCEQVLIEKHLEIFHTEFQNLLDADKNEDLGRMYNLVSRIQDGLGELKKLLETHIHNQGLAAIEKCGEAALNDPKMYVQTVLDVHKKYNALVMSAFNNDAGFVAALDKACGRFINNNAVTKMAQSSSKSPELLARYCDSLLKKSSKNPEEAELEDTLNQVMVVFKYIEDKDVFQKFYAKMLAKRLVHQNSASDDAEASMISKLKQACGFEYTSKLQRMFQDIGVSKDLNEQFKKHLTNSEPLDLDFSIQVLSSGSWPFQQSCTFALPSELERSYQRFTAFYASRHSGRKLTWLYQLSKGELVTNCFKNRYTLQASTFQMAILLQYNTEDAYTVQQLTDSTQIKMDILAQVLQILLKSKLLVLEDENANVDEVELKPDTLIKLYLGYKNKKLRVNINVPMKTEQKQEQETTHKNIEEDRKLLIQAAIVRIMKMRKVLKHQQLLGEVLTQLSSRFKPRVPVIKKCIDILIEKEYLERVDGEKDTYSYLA
T1 sequence (P63208 whole entry): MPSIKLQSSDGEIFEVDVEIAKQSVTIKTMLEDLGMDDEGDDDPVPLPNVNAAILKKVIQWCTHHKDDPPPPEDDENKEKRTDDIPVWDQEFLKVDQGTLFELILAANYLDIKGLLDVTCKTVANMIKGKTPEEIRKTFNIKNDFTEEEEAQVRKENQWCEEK
T1 sequence (P62877 whole entry): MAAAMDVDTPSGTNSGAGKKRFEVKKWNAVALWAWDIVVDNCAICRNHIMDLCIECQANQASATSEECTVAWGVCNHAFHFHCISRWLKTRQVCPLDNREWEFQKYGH

SMILES | IC50 [1, 3] | IC50 [2] | IC50 [1]
CC1=NN(c2ccc(S(N)(=O)=O)cc2)C(=O)/C1=C\c1cc2ccccc2o1 [Compound 168] | < 10 µM | 10 to 20 µM | –
CC1=NN(c2ccc(C(=O)O)cc2)C(=O)/C1=C\c1ccc(N2CCN(c3ccc(F)cc3)CC2)cc1 [Compound 448] | < 10 µM | 10 to 20 µM | –
CC1=NN(c2ccc(C(=O)O)cc2)C(=O)/C1=C\c1ccc2occc2c1 [Compound 370] | < 10 µM | 10 to 20 µM | –
CCCCC1=NN(c2ccccc2)C(=O)C1=Cc1ccc(-n2cccn2)cc1 [Compound 58] | – | < 40 µM | < 10 µM
COc1cc(/C=C2\C(=O)N(c3ccccc3)N=C2c2ccoc2)ccc1OCc1ccccc1 [Compound 94] | < 10 µM | < 40 µM | –
CCOC(=O)c1ccccc1-c1ccc(/C=C2\C(=O)N(c3ccc(C(=O)O)cc3)N=C2C)o1 [Compound 527] | < 10 µM | < 10 µM | –
CC1=NN(c2cccc(C(=O)N3CCOCC3)c2)C(=O)/C1=C\c1ccc2c(c1)OCCO2 [Compound 411] | < 10 µM | < 40 µM | –
CC1=NN(c2ccc(C(=O)O)cc2)C(=O)C1=Cc1ccc(OCC(=O)N(C)C)cc1 [Compound 535] | – | 10 to 20 µM | 10 to 20 µM
COCC1=NN(c2ccc(C(=O)O)cc2)C(=O)/C1=C\c1ccc2c(c1)OCCO2 [Compound 239] | < 10 µM | < 10 µM | –
COC(=O)N1CCN(c2ccc(/C=C3\C(=O)N(c4ccc(C(=O)O)cc4)N=C3c3ccc(OC)c(OC)c3)cc2)CC1 [Compound 279] | < 10 µM | 10 to 20 µM | –
CC1=NN(c2cccc(C(=O)O)c2)C(=O)/C1=C\c1ccc2c(ccn2C(=O)C2CC2)c1 [Compound 530] | < 10 µM | < 40 µM | –
CC1=NN(c2cccc(C(=O)O)c2)C(=O)/C1=C\c1ccc2c(ccn2CC2CC2)c1 [Compound 499] | < 10 µM | < 40 µM | –
O=C(O)c1ccc(N2N=C(C3CC3)/C(=C/c3ccc4ccccc4c3)C2=O)cc1 [Compound 313] | < 10 µM | 10 to 20 µM | –
CC1=NN(c2cccc(C(=O)O)c2)C(=O)/C1=C\c1ccc2c(ccn2C(=O)c2ccco2)c1 [Compound 531] | < 10 µM | < 40 µM | –
CC1=NN(c2ccc(C(=O)O)cc2)C(=O)/C1=C\c1cccc(O)c1 [Compound 542] | < 10 µM | < 40 µM | –
CC1=NN(c2cccc(S(N)(=O)=O)c2)C(=O)/C1=C\c1cc2ccccc2o1 [Compound 164] | < 10 µM | < 10 µM | –
CC1=NN(c2cccc(C(=O)O)c2)C(=O)/C1=C\c1ccc(-c2ccccc2F)o1 [Compound 486] | 10 to 20 µM | < 40 µM | –
COc1cc(/C=C2\C(=O)N(c3ccccc3)N=C2C2CC2)ccc1O [Compound 69] | 10 to 20 µM | 10 to 20 µM | –
CCCCC1=NN(c2ccc(C(=O)O)cc2)C(=O)/C1=C\c1ccc(N2CCC(CO)CC2)cc1 [Compound 443] | < 10 µM | 10 to 20 µM | –
CC1=NN(c2ccc(C(=O)O)cc2)C(=O)/C1=C\c1ccc2c(c1)OCCO2 [Compound 259] | < 10 µM | < 10 µM | –

SMILES | IC50 [1, 3] | IC50 [2] | IC50 [1]
CC1=NN(c2ccc(C(=O)O)cc2)C(=O)/C1=C\c1ccc(OCC(=O)N2CCCCC2)cc1 [Compound 533] | < 10 µM | 10 to 20 µM | –
CC1=NN(c2ccc(S(N)(=O)=O)cc2)C(=O)C1=Cc1cccc2ccccc12 [Compound 119] | – | < 10 µM | 10 to 20 µM
COc1ccc(C(=O)Nc2ccc(C=C3C(=O)N(c4ccc(S(N)(=O)=O)cc4)N=C3C)cc2)cc1 [Compound 229] | – | 10 to 20 µM | < 10 µM
CC1=NN(c2cccc(C(=O)O)c2)C(=O)/C1=C\c1ccc(N2CCOCC2)cc1 [Compound 441] | < 10 µM | < 40 µM | –
COC(=O)c1ccc(COc2ccc(/C=C3\C(=O)N(c4ccc(S(N)(=O)=O)cc4)N=C3C)cc2OC)cc1 [Compound 120] | < 10 µM | < 40 µM | –
CC1=NN(c2ccc(C(=O)O)cc2)C(=O)/C1=C\c1ccc(-n2cccn2)cc1 [Compound 261] | < 10 µM | 10 to 20 µM | –
CC1=NN(c2ccc(S(N)(=O)=O)cc2)C(=O)/C1=C\c1ccccc1OS(=O)(=O)c1ccc(C)cc1 [Compound 220] | 10 to 20 µM | < 10 µM | –
COc1cccc(-c2ccc(/C=C3\C(=O)N(c4cccc(C(=O)O)c4)N=C3C)o2)c1 [Compound 503] | 10 to 20 µM | < 10 µM | –
O=C(O)c1ccc(N2N=C(C3CC3)/C(=C/c3ccc4c(c3)OCCO4)C2=O)cc1 [Compound 319] | < 10 µM | < 10 µM | –
CC1=NN(c2ccccc2)C(=O)/C1=C\c1ccc(N2CCNCC2)cc1 [Compound 200] | 10 to 20 µM | < 40 µM | –
CC1=NN(c2ccc(S(N)(=O)=O)cc2)C(=O)/C1=C\c1ccc(OCC(N)=O)cc1 [Compound 208] | < 10 µM | < 40 µM | –
COc1cc(/C=C2\C(=O)N(c3ccc(S(N)(=O)=O)cc3)N=C2C)ccc1OCC(=O)OC(C)(C)C [Compound 121] | 10 to 20 µM | 10 to 20 µM | –
CC1=NN(c2cccc(C(=O)N3CCC(O)CC3)c2)C(=O)/C1=C\c1ccc2[nH]ccc2c1 [Compound 373] | < 10 µM | < 40 µM | –
COc1cc(/C=C2\C(=O)N(c3ccc(C(=O)O)cc3)N=C2Cc2ccccc2)ccc1OCc1ccccc1 [Compound 265] | 10 to 20 µM | 10 to 20 µM | –
CCCCC1=NN(c2ccc(C(=O)O)cc2)C(=O)/C1=C\c1ccc(N2CCCC2)cc1 [Compound 301] | 10 to 20 µM | < 10 µM | –
CCOC(=O)c1ccc(COc2ccc(/C=C3\C(=O)N(c4ccc(C(=O)O)cc4)N=C3C)cc2OC)o1 [Compound 392] | < 10 µM | 10 to 20 µM | –
CCCCC1=NN(c2cccc(C(=O)O)c2)C(=O)/C1=C\c1ccc2c(c1)OCO2 [Compound 473] | 10 to 20 µM | < 40 µM | –
CCCNC(=O)COc1ccc(C=C2C(=O)N(c3ccccc3)N=C2C)cc1 [Compound 204] | – | 10 to 20 µM | 10 to 20 µM
O=C(O)c1ccc(N2N=C(Cc3ccccc3)/C(=C/c3ccc(-c4ccccc4F)o3)C2=O)cc1 [Compound 267, 4-{3-Benzyl-4-[5-(2-fluorophenyl)-furan-2-ylmethylenc]-5-oxo-4.5-dihydropyrazol-1-yl} benzoic acid] | < 10 µM | < 10 µM | –
CC1=NN(c2cccc(C(=O)O)c2)C(=O)C1=Cc1ccc(N2CCN(c3ccccc3)CC2)cc1 [Compound 423] | < 10 µM | < 40 µM | –

SMILES | IC50 [1, 3] | IC50 [2] | IC50 [1]
CCCCC1=NN(c2ccc(C(=O)O)cc2)C(=O)C1=Cc1ccc(O)c(OC)c1 [Compound 295] | – | 10 to 20 µM | 10 to 20 µM
CCCCC1=NN(c2ccc(C(=O)O)cc2)C(=O)/C1=C\c1ccc(OCc2ccccc2)c(OC)c1 [Compound 296] | < 10 µM | < 40 µM | –
CCCCC1=NN(c2ccc(C(=O)O)cc2)C(=O)/C1=C\c1ccc(N2CCN(C(=O)OC)CC2)cc1 [Compound 298] | < 10 µM | 10 to 20 µM | –
CC1=NN(c2ccc(C(=O)O)cc2)C(=O)/C1=C\c1ccc(N2CCN(C(=O)OC(C)(C)C)CC2)cc1 [Compound 436] | 10 to 20 µM | < 40 µM | –
CC1=NN(c2ccc(C(=O)O)cc2)C(=O)/C1=C\c1ccc(-n2cncn2)cc1 [Compound 262] | < 10 µM | 10 to 20 µM | –
CCCCC1=NN(c2ccc(C(=O)O)cc2)C(=O)C1=Cc1ccc2c(c1)OCO2 [Compound 480] | – | 10 to 20 µM | < 10 µM
Cn1cc(-c2ccc(/C=C3\C(=O)N(c4ccc(C(=O)O)cc4)N=C3Cc3ccccc3)o2)cn1 [Compound 518] | 10 to 20 µM | 10 to 20 µM | –
COc1cc(/C=C2\C(=O)N(c3cccc(C(=O)O)c3)N=C2C)ccc1OCC1CCCCC1 [Compound 407] | 10 to 20 µM | < 40 µM | –
COc1ccc(C2=NN(c3ccc(C(=O)O)cc3)C(=O)/C2=C\c2ccc3ccccc3c2)cc1 [Compound 325] | < 10 µM | < 10 µM | –
COCC1=NN(c2ccc(C(=O)O)cc2)C(=O)/C1=C\c1ccc2ccccc2c1 [Compound 233] | < 10 µM | < 10 µM | –
COc1ccccc1-c1ccc(/C=C2\C(=O)N(c3cccc(C(=O)O)c3)N=C2c2ccoc2)o1 [Compound 485] | < 10 µM | < 40 µM | –
CC1=NN(c2ccccc2)C(=O)/C1=C\c1ccc(-c2ccccc2F)o1 [Compound 19] | < 10 µM | < 40 µM | –
COc1ccc(C2=NN(c3ccc(C(=O)O)cc3)C(=O)/C2=C\c2ccc3c(c2)OCCO3)cc1OC [Compound 283] | < 10 µM | < 10 µM | –
CC1=NN(c2cccc(C(=O)O)c2)C(=O)/C1=C\c1ccc2c(ccn2C(=O)c2cccn2C)c1 [Compound 532] | < 10 µM | < 40 µM | –
O=C(O)c1ccc(N2N=C(c3cccnc3)/C(=C/c3ccc(CO)o3)C2=O)cc1 [Compound 308] | < 10 µM | < 40 µM | –
CC1=NN(c2ccc(S(N)(=O)=O)cc2)C(=O)/C1=C\c1ccc(NC(=O)c2ccccc2)cc1 [Compound 224] | < 10 µM | 10 to 20 µM | –
CC1=NN(c2ccc(C(=O)O)cc2)C(=O)C1=Cc1ccc(OCc2ccc([N+](=O)[O-])cc2)cc1 [Compound 541] | – | < 10 µM | < 10 µM
CCCNC(=O)COc1ccc(C=C2C(=O)N(c3ccc(S(N)(=O)=O)cc3)N=C2C)cc1 [Compound 211] | – | < 40 µM | 10 to 20 µM
